Here are results for 13 compounds from ChEMBL document CHEMBL1275339, “Anti-leishmanial and anti-trypanosomal activities of 1,4-dihydropyridines: In vitro evaluation and structure-activity relationship study” (Bioorg Med Chem, 2010).

Data set [1] deals with Leishmania chagasi. As to the kind of experiment: Antileishmanial activity against promastigotes of Leishmania chagasi MHOM/BR/1972/LD after 18 hrs by MTT assay. Type of data set: functional, organism-based.
Data set [2] has as its system Trypanosoma cruzi. As to the kind of experiment: Antitrypanosomal activity against trypomastigotes of Trypanosoma cruzi infected in rhesus monkey LLC-MK2 cells after 48 hrs by MTT assay. In kind it is functional, organism-based. To be noted: LLC-MK2, 48 h.
Data set [3] deals with Leishmania major. As to the kind of experiment: Antileishmanial activity against promastigotes of Leishmania major MHOM/1L/80/Fredlin after 18 hrs by MTT assay. In kind it is functional, organism-based.
The test system of data set [4] is Leishmania braziliensis. As to the kind of experiment: Antileishmanial activity against promastigotes of Leishmania braziliensis MHO/BR/75/M2903 after 18 hrs by MTT assay. To be noted: MHO/BR/75/M2903, 18 h. Type of data set: functional, organism-based.
The nature of data set [5]: Selectivity index, ratio of IC50 for rhesus monkey LLC-MK2 cells to IC50 for trypomastigotes of Trypanosoma cruzi. Type of data set: toxicity, cell-based. The conditions noted are these: read-out: Selectivity Index.
For data set [6], the system named is Leishmania amazonensis. As to the kind of experiment: Antileishmanial activity against promastigotes of Leishmania amazonensis WHO/BR/00/LT0016 after 18 hrs by MTT assay. Type of data set: functional, organism-based. To be noted: WHO/BR/00/LT0016, 18 h.
Data set [7] is described as follows: Cytotoxicity in BALB/c mouse erythrocytes assessed as hemolysis at 50 uM after 3 hrs. Type of data set: cell-based. The conditions noted are these: erythrocyte.
Data set [8] relates to LLC-MK2. As to the kind of experiment: Cytotoxicity against rhesus monkey LLC-MK2 cells after 48 hrs by MTT assay. In kind it is cell-based, Macaca mulatta.
Data set [9] in a line: Selectivity index, ratio of IC50 for rhesus monkey LLC-MK2 cells to IC50 for amastigotes of Leishmania chagasi MHOM/BR/1972/LD. In kind it is toxicity, cell-based. The conditions noted are these: read-out: Selectivity Index.
The subject of data set [10] is Leishmania chagasi. As to the kind of experiment: Antileishmanial activity against amastigotes of Leishmania chagasi MHOM/BR/1972/LD after 24 hrs by MTT assay. In kind it is functional, organism-based.
In data set [11] the test system is Trypanosoma cruzi. As to the kind of experiment: Antitrypanosomal activity against epimastigotes of Trypanosoma cruzi. Type of data set: functional, organism-based.
Setting [12] is: Leishmania chagasi, MHOM/BR/1972/LD, 24 h.

For the compound `CC1=C(C(=O)OC(C)C)C(c2cccc([N+](=O)[O-])c2)C(C(=O)OC2CN(C(c3ccccc3)c3ccccc3)C2)=C(N)N1` (centres undefined) [AZELNIDIPINE], the IC50 in data set [1] was 33.4 µM; in data set [2], 2.9 µM; in [3] it was 17.1 µM; in [4], 13.7 µM; in [6] it was 20.5 µM; in [8] (Macaca mulatta, LLC-MK2, 48 h) it was 33.5 µM. In addition, the selectivity ratio in data set [5] amounted to 11.5. Besides, the Activity entry in [7] is listed as “Non-toxic”.

In the case of `O=C(Cn1ccnc1[N+](=O)[O-])NCc1ccccc1` [BENZNIDAZOLE], the IC50 in data set [2] is 172 µM; in data set [8] (Macaca mulatta, LLC-MK2, 48 h), above 1370 µM. In addition, the Activity entry in data set [7] was “Non-toxic”.

For the compound `N=C(N)c1ccc(OCCCCCOc2ccc(C(=N)N)cc2)cc1` [PENTAMIDINE], the IC50 in data set [1] is 1.11 µM; in [3], 0.47 µM; in [4], 0.15 µM; in [6], 0.49 µM; in [8] (Macaca mulatta, LLC-MK2, 48 h), 25.6 µM. Further, the Activity result in data set [7] is “Non-toxic”.

`COC(=O)C1=C(C)NC(C)=C(C(=O)OCCN(C)Cc2ccccc2)C1c1cccc([N+](=O)[O-])c1` (centres undefined) [NICARDIPINE]: the IC50 in data set [1] was 35.7 µM; in data set [2], 10.6 µM; in data set [3], 21.8 µM; in data set [4], 19.1 µM; in data set [6], 26.5 µM; in data set [10] (setting [12]), 22 µM. Further, in data set [8] (Macaca mulatta, LLC-MK2, 48 h), the IC50 was found to be 71.6 µM. Further, the values for the selectivity ratio in data set [9] and in data set [5] were 3.25 and 6.76, respectively. In data set [7], the Activity result was “Non-toxic”.

Consider `CCOC(=O)C1=C(COCCN)NC(C)=C(C(=O)OC)C1c1ccccc1Cl` (centres undefined) [AMLODIPINE], for which the IC50 turned out to be 2.61 µM in data set [1]; 8.07 µM in data set [2]; 3.35 µM in data set [3]; 3.13 µM in data set [4]; 2.93 µM in data set [6]; 5.35 µM in data set [10] (setting [12]). The IC50 in data set [8] (Macaca mulatta, LLC-MK2, 48 h) amounted to 70.8 µM. Moreover, the values for the selectivity ratio in [9] and in data set [5] were 13.2 and 8.77, respectively. Further, the Activity entry in data set [7] is “Non-toxic”.

As to `CCOC(=O)C1=C(C)NC(C)=C(C(=O)OCC)C1c1ccccc1/C=C/C(=O)OC(C)(C)C` [LACIDIPINE], the IC50 in [11] was determined as 33.5 µM. In data set [7], the Activity entry is reported as “Non-toxic”.

Regarding `COCCOC(=O)C1=C(C)NC(C)=C(C(=O)OC(C)C)C1c1cccc([N+](=O)[O-])c1` (centres undefined) [NIMODIPINE], the concentration for half-maximal inhibition (IC50) in data set [1] came to 82.7 µM; in data set [2] it was 32.3 µM; in data set [3], 31 µM; in data set [4] it was 42.8 µM; in [6] it was 128 µM; in data set [10] (setting [12]), 21.6 µM. Further, in data set [8] (Macaca mulatta, LLC-MK2, 48 h), the IC50 stood at 96.2 µM. Besides, the selectivity ratio stood at 4.45 in data set [9] and 2.98 in data set [5]. The Activity result in data set [7] is “Non-toxic”.

In the case of MEGLUMINE ANTIMONATE, the Activity result in data set [7] is on record as “Non-toxic”. In addition, the figures for the half-maximal inhibitory concentration (IC50) in data set [10] and in data set [8] (llc-mk2) were 82.3 µM and above 1370 µM, respectively.

In the case of `COCCOC(=O)C1=C(C)NC(C)=C(C(=O)OC/C=C/c2ccccc2)C1c1cccc([N+](=O)[O-])c1` (centres undefined) [CILNIDIPINE], the IC50 in data set [1] was 33 µM; in data set [2], 5.62 µM; in data set [3], 21.4 µM; in data set [4] it was 15.3 µM; in [6], 111 µM; in [10] (setting [12]) it was 28.4 µM. In addition, the IC50 in data set [8] (Macaca mulatta, LLC-MK2, 48 h) came to 222 µM. Moreover, the figures for the selectivity ratio in [9] and in data set [5] were 7.79 and 39.4, respectively. The Activity result in [7] is “Non-toxic”.

For `COC(=O)C1=C(C)NC(C)=C(C(=O)OC)C1c1ccccc1[N+](=O)[O-]` [NIFEDIPINE], the IC50 in [1] is 146 µM; in data set [2] it was 102 µM; in data set [3], 181 µM; in data set [4] it was 95.7 µM; in [6], 118 µM; in data set [10] (setting [12]), 176 µM. In addition, the IC50 in data set [8] (Macaca mulatta, LLC-MK2, 48 h) came to 589 µM. The results for the selectivity ratio in [9] and in data set [5] were 4.21 and 5.78, respectively. For the same compound, the Activity entry in data set [7] is recorded as “Non-toxic”.

As for `CCOC(=O)C1=C(C)NC(C)=C(C(=O)OC)C1c1cccc([N+](=O)[O-])c1` (centres undefined) [NITRENDIPINE], the half-inhibitory concentration (IC50) in data set [1] was 64.1 µM; in data set [2] it was 26.9 µM; in data set [3], 33.3 µM; in data set [4], 39 µM; in data set [6], 38.3 µM; in [10] (setting [12]) it was 43.8 µM. In data set [8] (Macaca mulatta, LLC-MK2, 48 h), the IC50 amounted to 138 µM. For the same compound, the selectivity ratio turned out to be 3.14 in [9] and 5.12 in data set [5]. Besides, in data set [7], the Activity entry is recorded as “Non-toxic”.

`COC(=O)C1=C(C)NC(C)=C(C(=O)OC(C)C)C1c1cccc2nonc12` (centres undefined) [ISRADIPINE] returned an IC50 in data set [11] of 20.8 µM. The Activity entry in data set [7] is listed as “Non-toxic”.

On to `COC(=O)C1=C(C)NC(C)=C(C(=O)OC(C)(C)CN(C)CCC(c2ccccc2)c2ccccc2)C1c1cccc([N+](=O)[O-])c1` (centres undefined) [LERCANIDIPINE], for which the IC50 came to 19.2 µM in [1]; 8.43 µM in data set [2]; 11.6 µM in [3]; 10.3 µM in [4]; 16.9 µM in data set [6]; 10.4 µM in [10] (setting [12]). For the same compound, in data set [8] (Macaca mulatta, LLC-MK2, 48 h), the IC50 was determined as 435 µM. In addition, the selectivity ratio in data set [9] was found to be 42; in data set [5] it was 51.6. Also, the Activity entry in [7] is recorded as “Non-toxic”.
